Reference: EP0059645A1, “Method and kit for identification of beta-lactamases” (NATIONAL RESEARCH DEVELOPMENT CORPORATION, priority 1981, dated 1982)
Marks after values point to notes of the source that are not given here.

How the values were obtained:
[1] = test system: PSE-3; assay: Competitive assay with nitrocefin (RSAI); type: biochemical, Ps.aerug. 1920E
[2] = molecular target: T1, Chromosomal, induced beta-lactamase enzyme (Pseudomonas aeruginosa, UniProt P24735); assay: Competitive assay with nitrocefin (RSAI); type: biochemical, Ps.aerug. 1937E + ampicillin
T1 construct: Normally, therefore, the beta-lactamase has to be extracted from the cells for the purpose of the present invention; endogenous in cells; host or cells: Pseudomonas aeruginosa 1937E grown with ampicillin

[3] = test system: K10317; assay: Competitive assay with nitrocefin (RSAI); type: biochemical, K.aerog. 10317
[4] = test system: K1073; assay: Competitive assay with nitrocefin (RSAI); type: biochemical, Klebsiella 1073
[5] = test system: K17; assay: Competitive assay with nitrocefin (RSAI); type: biochemical, Klebsiella 17
[6] = molecular target: TEM-2 (Escherichia coli, UniProt P62593, Q37K); assay: 6-well visual test with nitrocefin; details: 3 minutes, room temperature
[7] = molecular target: T2, SHV-1 (Escherichia coli, UniProt P0AD63); assay: 6-well visual test with nitrocefin; details: 3 minutes, room temperature
[8] = test system: HMS-1; assay: 6-well visual test with nitrocefin; details: 3 minutes, room temperature
[9] = molecular target: T3, OXA-1 (Escherichia coli, UniProt P13661); assay: 6-well visual test with nitrocefin; details: 3 minutes, room temperature
[10] = molecular target: OXA-2 (Escherichia coli, UniProt P0A1V9); assay: 6-well visual test with nitrocefin; details: 3 minutes, room temperature
[11] = molecular target: E. cloacae (Enterobacter cloacae, UniProt P05364); assay: 6-well visual test with nitrocefin; details: 3 minutes, room temperature
[12] = molecular target: T4, PSE-1 (Pseudomonas aeruginosa, UniProt Q03170); assay: 6-well visual test with nitrocefin; details: 3 minutes, room temperature
[13] = molecular target: T5, PSE-2 (Pseudomonas aeruginosa, UniProt P14489); assay: 6-well visual test with nitrocefin; details: 3 minutes, room temperature
[14] = molecular target: T6, PSE-4 (Pseudomonas aeruginosa, UniProt P16897); assay: 6-well visual test with nitrocefin; details: 3 minutes, room temperature
[15] = molecular target: Ps +AMP (Chromosomal) (Pseudomonas aeruginosa, UniProt P24735); assay: 6-well visual test with nitrocefin; details: 3 minutes, room temperature
[16] = test system: "unknown" (unidentified) beta-lactamase; assay: Competitive assay with nitrocefin (RSAI) on an unidentified beta-lactamase; details: extract by the method of Example 6, assay as in Example 1; * = showed irreversible inhibition
[17] = molecular target: OXA-3 (Pseudomonas aeruginosa, UniProt Q51429); assay: Competitive assay with nitrocefin (RSAI); type: biochemical, E. coli R57B; design: Normally, therefore, the beta-lactamase has to be extracted from the cells for the purpose of the present invention; endogenous in cells
[18] = molecular target: T4, PSE-1; assay: Competitive assay with nitrocefin (RSAI); type: biochemical, Ps.aerug. 1937E; design: Normally, therefore, the beta-lactamase has to be extracted from the cells for the purpose of the present invention; endogenous in cells
[19] = molecular target: T5, PSE-2; assay: Competitive assay with nitrocefin (RSAI); type: biochemical, Ps.aerug. 1973E; design: Normally, therefore, the beta-lactamase has to be extracted from the cells for the purpose of the present invention; endogenous in cells
[20] = molecular target: T6, PSE-4; assay: Competitive assay with nitrocefin (RSAI); type: biochemical, Ps.aerug. 1559E; design: Normally, therefore, the beta-lactamase has to be extracted from the cells for the purpose of the present invention; endogenous in cells
[21] = molecular target: T2, SHV-1; assay: Competitive assay with nitrocefin (RSAI); type: biochemical, E. coli 2008E; design: the beta-lactamase has to be extracted from the cells for the purpose of the present invention; made in house; host or cells: E. coli 2008E (crude cell extract)
[22] = molecular target: T3, OXA-1; assay: Competitive assay with nitrocefin (RSAI); type: biochemical, E. coli 1527E; design: the beta-lactamase has to be extracted from the cells for the purpose of the present invention; made in house; host or cells: E. coli 1527E according to the earlier reading (crude cell extract)
[23] = molecular target: Chromosomal, hyper-induced beta-lactamase enzyme (Escherichia coli, UniProt P00811); assay: Competitive assay with nitrocefin (RSAI); type: biochemical, E. coli SNU35; design: Normally, therefore, the beta-lactamase has to be extracted from the cells for the purpose of the present invention; endogenous in cells; host or cells: E. coli SNU 35 (artificially produced strain)
[24] = well A: Cefoxitin 20:1 to nitrocefin
[25] = well E: Cefoxitin 200:1 to nitrocefin

In the case of `CO[C@@]1(NC(=O)Cc2cccs2)C(=O)N2C(C(=O)O)=C(COC(N)=O)CS[C@@H]21` [Cefoxi-tin, cefoxitin], the RSAI [1] was 11.4, the RSAI [2] was 0.003 and the RSAI [3] was 350*. The RSAI [4] was 1020, the RSAI [5] was 1.6 and the “Score in 6-well visual test” value [6, 24] was “++”. The “Score in 6-well visual test” value [6, 25] was “-”, the “Score in 6-well visual test” value [7, 24] was “++” and the “Score in 6-well visual test” value [7, 25] was “+”. For the same molecule, the “Score in 6-well visual test” value [8, 24] was “++”, the “Score in 6-well visual test” value [8, 25] was “-” and the “Score in 6-well visual test” value [9, 24] was “++”. The “Score in 6-well visual test” value [9, 25] was “-”, the “Score in 6-well visual test” value [10, 24] was “-” and the “Score in 6-well visual test” value [10, 25] was “-”. For the same molecule, the “Score in 6-well visual test” value [11, 24] was “-”, the “Score in 6-well visual test” value [11, 25] was “-” and the “Score in 6-well visual test” value [12, 24] was “++”. For the same molecule, the “Score in 6-well visual test” value [12, 25] was “-”, the “Score in 6-well visual test” value [13, 24] was “+” and the “Score in 6-well visual test” value [13, 25] was “-”. For the same molecule, the “Score in 6-well visual test” value [14, 24] was “+”, the “Score in 6-well visual test” value [14, 25] was “-” and the “Score in 6-well visual test” value [15, 24] was “-”. For the same molecule, the “Score in 6-well visual test” value [15, 25] was “-”, the RSAI [16] was 0.008 and the RSAI [17] was 0.004. The RSAI [18] was 20, the RSAI [19] was 24 and the RSAI [20] was 27. It also gave an RSAI [21] of 600, an RSAI [22] of 20 and an RSAI [23] of 0.0008.
